US12433295B2, “Small-scale robots for biofilm eradication” (THE TRUSTEES OF THE UNIVERSITY OF PENNSYLVANIA, priority 2018, dated 2025)

System: biofilm extracellular matrix
Experiment: dose dependent extracellular matrix degradation of the enzymes mutanase and dextranase (FIG. 4)
Type: cell-based
Conditions: combination of mutanase and dextranase
Description: FIG. 4 depicts the dose dependent extracellular matrix degradation of the enzymes mutanase and dextranase.
FIG. 4 depicts the dose dependent extracellular matrix degradation of the enzymes mutanase and dextranase in accordance with an embodiment of disclosed subject matter. While the catalytic function of iron oxide nanoparticles degrades the biofilm matrix more slowly than it substantially eradicates the bacteria, the rate of degradation can be enhanced with enzymes including mutanase and dextranase. A combination of 1.75 U mutanase and 8.75 U dextranase achieves maximal efficacy for extracellular matrix degradation.

Substance	amount that achieves maximal efficacy for extracellular matrix degradation [U]
mutanase	1.75
dextranase	8.75
